{
  "source": "paper PMC11413503",
  "about": "“SCR‐7952, a highly selective MAT2A inhibitor, demonstrates synergistic antitumor activities in combination with the S‐adenosylmethionine‐competitive or the methylthioadenosine‐cooperative protein arginine methyltransferase 5 inhibitors in methylthioadenosine phosphorylase‐deleted tumors” (MedComm, 2024)",
  "key": {"PDE3A": {"biological_target": "PDE3A (Homo sapiens, UniProt Q14432)", "experiment": "Mini-profiling panel, non-kinase enzyme", "format": "biochemical", "conditions": "Non-Kinase Enzymes; read-out: PDE3A Inhibitor IC50"}, "MAT2A": {"biological_target": "T1, MAT2A (Homo sapiens, UniProt P31153)", "T1 construct": "purchased Pharmaron 210405‐HWR‐20210429", "T1 sequence (P31153 whole entry)": "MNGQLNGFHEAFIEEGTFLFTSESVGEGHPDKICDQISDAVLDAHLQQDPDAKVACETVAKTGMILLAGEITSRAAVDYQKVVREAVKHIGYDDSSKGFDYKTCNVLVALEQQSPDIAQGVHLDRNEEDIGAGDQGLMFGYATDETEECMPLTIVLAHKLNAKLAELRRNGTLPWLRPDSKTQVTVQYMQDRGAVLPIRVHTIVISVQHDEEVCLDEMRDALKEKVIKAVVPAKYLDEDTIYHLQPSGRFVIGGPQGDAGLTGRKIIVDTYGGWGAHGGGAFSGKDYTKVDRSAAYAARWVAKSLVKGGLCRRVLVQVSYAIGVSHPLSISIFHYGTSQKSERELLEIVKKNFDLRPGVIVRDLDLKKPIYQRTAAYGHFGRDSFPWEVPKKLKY", "experiment": "SPR binding, single-cycle kinetics", "protocol": "SPR experiments were performed using a BIAcore 8K instrument (Cytiva) at 25°C. A series S sensor chip SA (Cytiva) was docked into the system in 20 mM Bicine‐Na, pH 7.5, 100 mM KCl, 5 mM MgCl2, 0.1 mM TCEP, 0.05% (w/w) Tween‐20, and 2% (v/v) DMSO. The MAT2A protein was captured by Penta‐anti‐His antibody, and the affinity of SCR‐7952 was tested over a suitable dose–response range (12.5–200 nM) by single‐cycle kinetics. The kinetic parameters of SCR‐7952 on MAT2A were fitted via a 1:1 binding model."}, "hERG": {"biological_target": "hERG (Homo sapiens, UniProt Q12809)", "experiment": "Mini-profiling panel, ion channel", "format": "cell-based", "conditions": "Ion Channels; read-out: hERG Blocker IC50"}, "COX2": {"biological_target": "COX2 (Homo sapiens, UniProt P35354)", "experiment": "Mini-profiling panel, non-kinase enzyme", "format": "biochemical", "conditions": "Non-Kinase Enzymes; read-out: COX2 Inhibitor IC50"}, "KvLQT1/mink": {"biological_target": "KvLQT1/mink (Homo sapiens, UniProt P51787)", "sequence (P51787 whole entry)": "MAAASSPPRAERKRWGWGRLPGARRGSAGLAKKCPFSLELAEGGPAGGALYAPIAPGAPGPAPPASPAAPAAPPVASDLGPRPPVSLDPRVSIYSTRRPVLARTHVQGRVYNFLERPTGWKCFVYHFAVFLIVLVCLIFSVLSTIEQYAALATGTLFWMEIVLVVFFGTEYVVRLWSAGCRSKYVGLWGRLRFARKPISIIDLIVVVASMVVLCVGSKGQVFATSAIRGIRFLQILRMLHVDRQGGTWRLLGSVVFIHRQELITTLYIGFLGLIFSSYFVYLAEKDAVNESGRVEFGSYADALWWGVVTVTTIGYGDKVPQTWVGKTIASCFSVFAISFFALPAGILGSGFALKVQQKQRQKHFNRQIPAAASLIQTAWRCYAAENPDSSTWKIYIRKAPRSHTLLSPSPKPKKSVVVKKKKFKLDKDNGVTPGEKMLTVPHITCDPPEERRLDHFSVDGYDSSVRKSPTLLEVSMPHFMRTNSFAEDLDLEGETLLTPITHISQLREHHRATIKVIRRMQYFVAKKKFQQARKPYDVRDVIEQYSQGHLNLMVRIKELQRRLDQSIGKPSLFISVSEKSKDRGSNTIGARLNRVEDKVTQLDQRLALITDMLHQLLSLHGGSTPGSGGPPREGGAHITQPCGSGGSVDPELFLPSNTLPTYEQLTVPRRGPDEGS", "experiment": "Mini-profiling panel, ion channel", "format": "cell-based", "protocol": "(§1) Further insight into selectivity was evaluated in a functional panel of 47 representative targets closely related to human life activities, including G protein‐coupled receptors, transporters, ion channels, kinases, nuclear hormone receptor targets, and nonkinase enzymes (Table S3)."}, "NAV1.5": {"biological_target": "NAV1.5 (Homo sapiens, UniProt Q14524)", "experiment": "Mini-profiling panel, ion channel", "format": "cell-based", "protocol": "as §1"}, "NMDAR (1A/2B)": {"biological_target": "NMDAR (1A/2B) (Homo sapiens, UniProt Q05586+Q13224)", "sequence (Q13224 27-1484, other chains not shown)": "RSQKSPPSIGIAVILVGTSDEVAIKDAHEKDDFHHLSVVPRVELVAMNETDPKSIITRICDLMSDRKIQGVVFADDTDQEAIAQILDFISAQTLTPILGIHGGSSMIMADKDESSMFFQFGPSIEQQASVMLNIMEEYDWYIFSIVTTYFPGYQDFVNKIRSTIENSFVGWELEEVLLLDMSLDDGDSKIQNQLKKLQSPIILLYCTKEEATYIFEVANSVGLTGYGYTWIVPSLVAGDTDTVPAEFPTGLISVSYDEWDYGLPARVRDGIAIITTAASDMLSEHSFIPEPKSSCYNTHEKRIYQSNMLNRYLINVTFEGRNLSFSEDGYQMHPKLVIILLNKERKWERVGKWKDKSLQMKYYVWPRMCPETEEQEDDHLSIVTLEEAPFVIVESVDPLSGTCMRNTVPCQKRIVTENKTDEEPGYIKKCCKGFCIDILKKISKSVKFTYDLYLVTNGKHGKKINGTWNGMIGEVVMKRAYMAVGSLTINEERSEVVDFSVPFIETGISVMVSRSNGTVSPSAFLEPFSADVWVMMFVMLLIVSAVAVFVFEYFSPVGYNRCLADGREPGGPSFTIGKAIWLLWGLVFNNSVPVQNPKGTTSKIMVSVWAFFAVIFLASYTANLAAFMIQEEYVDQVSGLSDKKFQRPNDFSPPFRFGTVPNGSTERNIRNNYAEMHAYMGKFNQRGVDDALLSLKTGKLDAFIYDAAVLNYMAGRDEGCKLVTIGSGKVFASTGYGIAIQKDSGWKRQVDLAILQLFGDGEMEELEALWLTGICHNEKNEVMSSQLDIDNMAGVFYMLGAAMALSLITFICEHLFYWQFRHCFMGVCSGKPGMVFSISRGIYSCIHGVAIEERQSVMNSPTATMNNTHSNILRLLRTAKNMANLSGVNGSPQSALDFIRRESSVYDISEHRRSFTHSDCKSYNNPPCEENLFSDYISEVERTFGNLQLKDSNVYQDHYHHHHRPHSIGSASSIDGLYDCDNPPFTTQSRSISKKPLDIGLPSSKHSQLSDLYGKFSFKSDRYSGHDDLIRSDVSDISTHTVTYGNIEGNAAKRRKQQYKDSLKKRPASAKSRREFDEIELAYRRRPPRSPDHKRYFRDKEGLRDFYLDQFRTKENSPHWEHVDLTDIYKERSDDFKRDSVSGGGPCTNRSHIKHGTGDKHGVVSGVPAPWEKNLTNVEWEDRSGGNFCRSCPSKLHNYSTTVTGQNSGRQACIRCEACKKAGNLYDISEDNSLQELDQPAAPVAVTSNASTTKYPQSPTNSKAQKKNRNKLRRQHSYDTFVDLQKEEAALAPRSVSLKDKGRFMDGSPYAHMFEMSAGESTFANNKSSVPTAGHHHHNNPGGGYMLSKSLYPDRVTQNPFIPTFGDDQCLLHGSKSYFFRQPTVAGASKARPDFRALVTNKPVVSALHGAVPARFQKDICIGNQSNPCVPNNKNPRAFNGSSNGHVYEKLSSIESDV", "experiment": "Mini-profiling panel, ion channel", "format": "cell-based", "protocol": "as §1"}, "HTR3A": {"biological_target": "HTR3A (Homo sapiens, UniProt P46098)", "sequence (P46098 24-478, species assumed)": "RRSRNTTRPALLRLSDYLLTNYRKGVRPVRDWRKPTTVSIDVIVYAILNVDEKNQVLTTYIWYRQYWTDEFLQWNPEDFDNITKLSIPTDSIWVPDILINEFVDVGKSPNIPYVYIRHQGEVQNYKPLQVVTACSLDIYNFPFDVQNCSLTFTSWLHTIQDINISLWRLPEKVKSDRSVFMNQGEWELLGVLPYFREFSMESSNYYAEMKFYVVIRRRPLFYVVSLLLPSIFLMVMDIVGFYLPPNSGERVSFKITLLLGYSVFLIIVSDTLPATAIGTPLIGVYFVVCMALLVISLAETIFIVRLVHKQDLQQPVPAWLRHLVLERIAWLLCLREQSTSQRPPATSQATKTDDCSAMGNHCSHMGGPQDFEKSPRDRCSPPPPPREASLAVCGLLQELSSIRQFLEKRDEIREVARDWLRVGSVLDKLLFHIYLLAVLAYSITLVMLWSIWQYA", "experiment": "Mini-profiling panel, ion channel", "format": "cell-based", "protocol": "as §1"}, "nAChR(a4/b2)": {"biological_target": "nAChR(a4/b2) (Homo sapiens, UniProt P17787+P43681)", "sequence (P43681 29-627 limits assumed)": "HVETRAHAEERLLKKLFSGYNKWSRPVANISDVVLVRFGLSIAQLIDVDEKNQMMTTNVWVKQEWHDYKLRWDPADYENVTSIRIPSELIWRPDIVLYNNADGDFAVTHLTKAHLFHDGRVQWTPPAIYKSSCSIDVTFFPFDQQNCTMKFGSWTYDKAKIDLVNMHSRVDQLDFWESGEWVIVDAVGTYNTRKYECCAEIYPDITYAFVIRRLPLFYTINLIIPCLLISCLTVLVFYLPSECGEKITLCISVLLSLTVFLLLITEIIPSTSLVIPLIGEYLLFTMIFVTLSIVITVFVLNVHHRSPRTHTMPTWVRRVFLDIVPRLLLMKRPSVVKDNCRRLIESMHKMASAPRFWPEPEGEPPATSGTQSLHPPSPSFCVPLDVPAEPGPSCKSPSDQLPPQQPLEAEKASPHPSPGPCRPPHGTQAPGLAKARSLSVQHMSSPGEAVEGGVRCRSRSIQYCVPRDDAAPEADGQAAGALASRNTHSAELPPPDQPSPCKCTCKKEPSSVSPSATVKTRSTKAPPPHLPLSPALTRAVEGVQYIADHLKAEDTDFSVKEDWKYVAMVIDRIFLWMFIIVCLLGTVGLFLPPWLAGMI", "sequence (P17787 26-502)": "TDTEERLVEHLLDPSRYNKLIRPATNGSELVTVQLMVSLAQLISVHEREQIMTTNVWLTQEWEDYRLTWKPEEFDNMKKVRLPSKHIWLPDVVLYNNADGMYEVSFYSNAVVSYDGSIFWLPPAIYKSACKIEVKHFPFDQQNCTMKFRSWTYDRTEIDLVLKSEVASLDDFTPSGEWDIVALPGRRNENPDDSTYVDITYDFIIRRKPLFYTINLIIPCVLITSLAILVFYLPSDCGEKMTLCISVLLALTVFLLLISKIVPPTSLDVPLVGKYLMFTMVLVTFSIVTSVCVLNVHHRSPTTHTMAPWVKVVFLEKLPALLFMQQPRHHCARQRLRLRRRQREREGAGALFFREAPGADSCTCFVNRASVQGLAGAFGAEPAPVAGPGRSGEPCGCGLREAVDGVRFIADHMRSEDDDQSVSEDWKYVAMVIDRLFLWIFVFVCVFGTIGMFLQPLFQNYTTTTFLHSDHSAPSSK", "experiment": "Mini-profiling panel, ion channel", "format": "cell-based", "protocol": "as §1"}, "GR": {"biological_target": "GR (Homo sapiens, UniProt P04150)", "sequence (P04150 whole entry)": "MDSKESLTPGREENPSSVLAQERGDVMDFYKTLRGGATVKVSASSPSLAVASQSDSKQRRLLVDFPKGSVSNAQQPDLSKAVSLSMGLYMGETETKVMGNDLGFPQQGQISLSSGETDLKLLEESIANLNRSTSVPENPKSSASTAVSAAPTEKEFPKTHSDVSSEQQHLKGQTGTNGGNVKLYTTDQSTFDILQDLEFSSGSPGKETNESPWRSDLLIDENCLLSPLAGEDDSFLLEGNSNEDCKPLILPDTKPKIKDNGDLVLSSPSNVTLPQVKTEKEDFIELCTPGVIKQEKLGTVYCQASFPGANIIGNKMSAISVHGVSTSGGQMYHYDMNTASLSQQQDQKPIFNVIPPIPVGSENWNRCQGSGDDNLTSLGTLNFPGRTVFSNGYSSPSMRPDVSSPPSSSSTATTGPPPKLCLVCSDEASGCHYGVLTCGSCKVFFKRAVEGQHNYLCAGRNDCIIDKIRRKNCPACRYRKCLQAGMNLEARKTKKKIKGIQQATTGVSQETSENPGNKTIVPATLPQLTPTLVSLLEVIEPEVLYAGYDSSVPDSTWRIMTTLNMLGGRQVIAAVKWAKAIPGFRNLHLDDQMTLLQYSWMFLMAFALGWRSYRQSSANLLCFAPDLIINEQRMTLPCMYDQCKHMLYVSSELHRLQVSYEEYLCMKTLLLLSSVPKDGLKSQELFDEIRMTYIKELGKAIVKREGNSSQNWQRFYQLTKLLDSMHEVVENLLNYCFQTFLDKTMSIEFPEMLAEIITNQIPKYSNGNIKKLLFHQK", "experiment": "Mini-profiling panel, nuclear hormone receptor", "format": "cell-based", "conditions": "NHR Targets"}, "[1]": {"tested_on": "WI-38 (human fetal lung fibroblast cells)", "experiment": "Proliferation assay (CellTiter-Glo)", "format": "cell-based", "conditions": "MTAP WT; read-out: IC50, anti-proliferation WI-38", "protocol": "(§2) HCT116 colon carcinoma parental (WT) cells with MTAP ^−/− isogenic clone were established by KYinno Biotechnology Co., Ltd. (Beijing, China). A549, MIA PaCa‐2, and WI‐38 cell lines were obtained from ATCC. NCI‐H838 was obtained from Cobioer Biosciences. HCT116 WT and KO MTAP cells were cultured in McCoy's 5A media containing 10% FBS. A549 cells were cultured in DMEM media containing 10% FBS. MIA PaCa‐2 cells were cultured in DMEM media containing 10% FBS and 2.5% horse serum. NCI‐H838 cells were cultured in PRMI 1640 media containing 10% FBS. WI‐38 cells were cultured in EMEM media containing 10% FBS.\n(§3) Cells were plated in 96‐well cell culture plates and allowed to attach overnight at 37°C in 5% CO2. Compounds diluted in DMSO were added to cells in a dose–response format for 6 days. The final concentration of DMSO was 0.1% in media. Cell proliferation was measured using CellTiter‐Glo Cell Viability Assay (Promega). The IC50 values were calculated using the GraphPad Prism 9. Drug combination effects were analyzed using Combenefit software.[45]"}, "MIA PaCa-2": {"tested_on": "MIA PaCa-2", "experiment": "Proliferation assay (CellTiter-Glo)", "format": "cell-based", "conditions": "Homo sapiens, MIA PaCa-2, 144 h; MTAP-deleted, 6-day; read-out: IC50, anti-proliferation MIA PaCa-2", "protocol": "as §2, §3"}, "HCT116 MTAP−/− cells": {"tested_on": "HCT116 MTAP−/− cells", "experiment": "Intracellular SAM inhibition assay", "format": "cell-based", "conditions": "Homo sapiens, HCT-116; HCT116 MTAP−/− cells, 6 h treatment; read-out: IC50, cellular SAM levels", "protocol": "MAT2A inhibition in the cellular environment was monitored by measurement of the abundance of its product SAM in HCT116 MTAP ^−/− cells. HCT116 MTAP ^−/− cells were plated in 96‐well cell culture plates at 50,000 cells per well and allowed to attach overnight at 37°C in 5% CO2. Compounds were added in a dose–response format to generate a 10‐point dose–response curve. Doses were started at a 10 µM top concentration with 1:5 serial dilution. After 6 h of incubation, the medium was removed and cells were extracted with 50% methanol containing 1 M acetic acid for SAM metabolite measurement by UPLC‐MS/MS.\nThe standard SAM solution was prepared in a surrogate matrix of 50% methanol containing 1 M acetic acid with a concentration range of 3–1000 ng/mL. The quality control sample was prepared in the same surrogate matrix. SAM‐d 3 was used as the internal standard (IS). A Waters UPLC system coupled with a SCIEX Triple Quad™ 6500^+ mass spectrometer […] was used to analyze the samples. Samples were separated on an ACQUITY UPLC® BEH amide column (2.1 × 50 mm, 1.7 µm). The mobile phase consisted of 5% acetonitrile containing 5 mM NH4OAc and 1% (v/v) formic acid (A) and 95% acetonitrile containing 5 mM NH4OAc and 1% (v/v) formic acid (B). […] SAM and SAM‐d 3 were detected with multiple‐reaction monitoring of a mass transition pair at m/z 399.2/250.2 and […], respectively."}, "LCK": {"biological_target": "LCK (Homo sapiens, UniProt P06239)", "experiment": "Mini-profiling panel, kinase", "format": "biochemical", "conditions": "Kinases; read-out: LCK Inhibitor IC50"}, "human UGT1A1": {"biological_target": "human UGT1A1 (Homo sapiens, UniProt P22309)", "experiment": "UGT1A1 biochemical assay"}},
  "note": "pEC50, pIC50, pKd: −log10 of the molar value.",
  "data": [
    {"smiles": "Cn1cnc2c(=O)n(-c3cccnc3C3CC3)c3cc(Cl)ccc3c21", "note": "[SCR‐7952, 7‐chloro‐5‐(2‐cyclopropylpyridin‐3‐yl)‐1‐methyl‐1,5‐dihydro‐4H‐imidazo[4,5‐c]quinolin‐4‐one]", "values": [
      {"measurement": "pIC50", "setting": "PDE3A", "result": "< 5.00"},
      {"measurement": "pKd", "setting": "MAT2A; read-out: dissociation equilibrium constant KD", "result": 9.25},
      {"measurement": "kon", "setting": "MAT2A; single-cycle kinetic model, read-out: association rate constant ka", "result": 86700, "unit": "M⁻¹ s⁻¹"},
      {"measurement": "koff", "setting": "MAT2A; single-cycle kinetic model, read-out: dissociation rate constant kd", "result": "4.83e-05", "unit": "s⁻¹"},
      {"measurement": "pIC50", "setting": "hERG", "result": "< 5.00"},
      {"measurement": "pIC50", "setting": "COX2", "result": "< 5.00"},
      {"measurement": "pEC50", "setting": "KvLQT1/mink", "result": "< 5.00"},
      {"measurement": "pIC50", "setting": "KvLQT1/mink", "result": "< 5.00"},
      {"measurement": "pIC50", "setting": "NAV1.5", "result": "< 5.00"},
      {"measurement": "pEC50", "setting": "NMDAR (1A/2B)", "result": "< 5.00"},
      {"measurement": "pIC50", "setting": "NMDAR (1A/2B)", "result": "< 5.00"},
      {"measurement": "pEC50", "setting": "HTR3A", "result": "< 5.00"},
      {"measurement": "pIC50", "setting": "HTR3A", "result": "< 5.00"},
      {"measurement": "pEC50", "setting": "nAChR(a4/b2)", "result": "< 5.00"},
      {"measurement": "pIC50", "setting": "nAChR(a4/b2)", "result": "< 5.00"},
      {"measurement": "pEC50", "setting": "GR; read-out: GR Agonism EC50", "result": "< 5.00"},
      {"measurement": "pIC50", "setting": "GR; read-out: GR Antagonism IC50", "result": "< 5.00"},
      {"measurement": "pIC50", "setting": "[1]", "result": 5.37},
      {"measurement": "pIC50", "setting": "MIA PaCa-2", "result": 7.71},
      {"measurement": "pIC50", "setting": "HCT116 MTAP−/− cells", "result": 8.72},
      {"measurement": "pIC50", "setting": "LCK", "result": "< 5.00"},
      {"measurement": "pIC50", "setting": "human UGT1A1", "result": "< 4.00"}
    ]}
  ]
}
